Experimental data published in patent publication US20110269790A1, “NOVEL THIENOPYRIDINES AS PHARMACOLOGICALLY ACTIVE AGENTS” (priority 2009, published 2011).

Tests used:
Wistar rats = assay: Dextran induced rat paw edema model; assay type: in vivo; details: 3 hrs after Dextran
Description: Anti-inflammatory activity of test compounds was evaluated in Wistar rats employing method of Winter et al (1963) and Diwan et al (1989). Over night fasted rats were grouped into different test groups and standard group consisting 6 animals in each group. Test compounds were administered orally one hour before dextran challenge as gum acacia suspension. Animals in the standard group received Indomethacin at dose of 10 mg/kg. After one hour dextran was injected into the right hind paw by sub plantar route. A zero hour paw volume was measured for the rats using digital plethysmometer (Ugo Basile, Italy) before the administration of Dextran for all groups. Paw volumes were again measured 3 hrs after the challenge of Dextran. The percent inhibition of paw volume for each rat in treated groups was calculated by comparing with mean paw volume of control group and expressed as mean (±SE) percent inhibition of paw volume for each test group.

rats = assay: Ulcerogenic assay; assay type: in vivo, rat; details: BN compounds 200 mg/kg oral, Indomethacin 30 mg/kg; for Ulcer Score: arbitrary scale 0 (no lesions) to 4 (mucosa full of lesions); for Ulcer Incidence: fasted rats, six hours after dosing, n=4
Description: The method of Cashin et al., (1979) was employed. Food was withheld from the animals for 18 hours prior to the experiment. The fasted animals (n=4) received the compounds BN-4, BN-14 and BN-16 as gum acacia suspension by oral route at the dose of 100,200 mg/kg. Indomethacin control animals received the drug at the dose of 30 mg/kg. Six hours later, rats were killed and the stomachs removed and open along the lesser curvature. The opened stomach was washed with normal saline and observed for ulceration. Lesions on the mucosal surface was scored according to arbitrary scale: 0 No lesion; 0.5=hyperemia; 1=one or two lesions; 2=severe lesions; 3=very severe lesions; 4=Mucosal full of lesions (Bani et al., 2000). […] But indomethacin group animals show severe ulceration in stomach portion. More importantly, gastric ulcer, which is a common side effect of NSAIDS, was totally absent in stomach of compound treated rat group. Since enhanced leukotrine production plays a role in development of gastrointestinal damage from cyclooxygenase inhibition by NSAIDS (Rainsford et al., 1993; Gyomber et al., 1996) and all the compounds have shown potent inhibitory action on 5-LOX inhibition (Arachidonic induced paw edema model) along with cox inhibition (Carrageenan induced paw edema model), the gastric ulcer sparing effect of compounds may be partly due to their effect on 5-LOX inhibition.

[1] = Acute oral toxicity, main study in rats; details: both sexes, Albino Wistar, rat, in vivo, single oral dose, read-out: Maximum tolerated dose
Description: (§1) In the preliminary sighting study, the effect of various dosed administered to single animals of each sex was investigated in a sequential manner. The sighting study generally yields information on the dose-toxicity relationship including an estimate of the minimum lethal dose. In the main study, the test article is administered to groups of 5 males and 5 female animals at one of the fixed doses (5, 50, 500 and 2000 mg/Kg). The dose is derived from the sighting study. It is immediately below that which is expected to result in mortality. If evident toxicity is not seen at the chosen dose level, the substance should be retested at the next higher dose level. If at the initial dose level, animals die, or a severe toxicity reaction requires removal of animals from the study for animal welfare reasons, the substance is retested at the next lower dose level. Consideration of data from the both sighting study and the main study enabled a judgment to be made on determination of maximum tolerated dose.
(§2) At least 10 animals (5 males and 5 females) for each species were used for dose level in this study. Animals were fasted overnight and test articles were administered as 1% gum acacia suspension orally. The dose used in this study is selected from one of four levels 5 mg/kg, 50 mg/kg, 500 mg/kg and 2000 mg/kg i.e. the dose that produced evident toxicity but not mortality in sighting study. […] Different biochemical and hematology parameters observed on “0’ day and on termination day .During main study physical parameters like feed consumption and body weight increase were also recorded. 5 males and females were taken, and toxicity study conducted for the compounds. […] Hematology and biochemical parameters were well and within normal range when compared with 0 day in rats and mice. Based on above observations synthetic compounds were safe upto 2000 mg/kg.

[2] = Acute oral toxicity, main study in mice; details: both sexes, mouse, in vivo, single oral dose, read-out: Maximum tolerated dose
Description: as §1, §2

IL-1β [3] = assay: IL-1β in rat paw tissue and serum, FCA model (ELISA); assay type: in vivo; design: % Inhibition (IL-1 Beta) / Percentage of Inhibition (IL-1 Beta): concentration or dose not given beside the values; details: for % Inhibition (IL-1 Beta): FCA model
Description: Group I—Normal Control; Group II—Arthritic control; Group III—Arthritic rats administered with Synthetic compound BN-4; Group IV—arthritic rats administered with compound BN-14; Group V—arthritic rats administered with BN-16; Group VI—arthritic rats administered with standard drug indomethacin. Administration of test compounds and indomethacin started on the same day of adjuvant injection at the dose of 100 and 2.5 mg/kg respectively. The test and indomethacin doses continued up to 21 days in FCA induced model and 24 days in collagen induced model. During the study period the paw volumes were measured on 5th, 12th, 18th and 21 st days and the weight of the animals was also recorded at different time intervals. At each time point the percentage of inhibition of paw volume was calculated with reference to mean paw volume of control group In FCA model, animals were sacrificed on 21st day by cervical dislocation. Before sacrificing the animals, blood was collected and used for estimation of total leukocyte count, TNF-α and IL-1β.
In FCA induced study paw tissues were collected on termination day and estimated TNF-α and IL-1β levels for all the groups by ELISA method.
On termination day blood samples were collected and serum was used for the estimation of Both TNF-α and IL-1β levels in FCA and Collagen induced studies. Both the parameters were determined using ELISA kits. TNF-α could not be determined as their expression is very less in serum samples of the rats in the two models studied, where as IL-1β expression in serum was good. Daily treatment of synthetic compounds by oral administration was effective in reducing the serum IL-1β levels (P<0.01) when compared with arthritic control group.

TNF-α = TNF-α in paw tissue, collagen induced arthritis; assay type: in vivo, rat; details: collagen induced study, day 24, 100 mg/kg/day
Text: (§3) It is believed that these proinflammatory cytokines help to propagate a local or systemic inflammatory process, and to induce biosynthesis and secretion of metalloproteinases (MMPs) and osteoclasts that critically contribute to degradation of extracellular matrix and erosion of bone respectively (Burger et al., 1998; Gravallese and Goldring, 2000; Smolen and Steiner, 2003).

IL-1β [4] = assay: IL-1β in paw tissue and serum, collagen induced arthritis; assay type: in vivo, rat; details: for Inhibition of IL-1β in paw tissues: collagen induced study, day 24, 100 mg/kg/day; for Reduction of IL-1β levels in serum: collagen study, vs arthritic control
Text: as §3
On termination day blood samples were collected and serum was used for the estimation of Both TNF-α and IL-1β levels in FCA and Collagen induced studies. Both the parameters were determined using ELISA kits.

[5] = paw tissue, termination day (21st day), BN compounds 100 mg/kg, indomethacin 2.5 mg/kg
[6] = rat serum, termination day, FCA induced arthritis

SMILES	% Inhibition (Wistar rats; 50 mg/kg oral) [%]	Percentage Swelling (50 mg/kg) (Wistar rats; 50 mg/kg oral)	% Inhibition (Wistar rats; 100 mg/kg oral) [%]	Percentage Swelling (100 mg/kg) (Wistar rats; 100 mg/kg oral) [%]	% Inhibition (Wistar rats; 200 mg/kg oral) [%]	Percentage Swelling (200 mg/kg) (Wistar rats; 200 mg/kg oral) [%]	Ulcer Score (rats)	Ulcer Incidence (rats)	MTD at 14 days [1] [mg/kg]	MTD at 14 days [2] [mg/kg]	IL-1 Beta concentration (IL-1β [3]; [5])	% Inhibition (IL-1 Beta) (IL-1β [3]; paw tissue, termination day) [%]	IL-1 Beta concentration (IL-1β [3]; [6])	Percentage of Inhibition (IL-1 Beta) (IL-1β [3]; [6]) [%]	Inhibition of TNF-α in paw tissues (TNF-α)	Inhibition of IL-1β in paw tissues (IL-1β [4])	Reduction of IL-1β levels in serum (IL-1β [4])
Nc1c2c(nc3sc4c(c13)CCC4)CCCC2 [BN-14, 2,3,6,7,8,9-Hexahydro-1H-cyclopenta[4,5]thieno[2,3-b]quinolin-10-amine]	21.29 ± 4.69	65.36 ± 2.91a %	24.83 ± 0.47	41.63 ± 2.78	38.54 ± 4.26	36.09 ± 2.79	0.37 ± 0.10	¼	1060	1250	113.0 ± 26.8 ng/gm of tissue	38.49 ± 14.97	50.83 ± 6.11 Pg/ml of tissue	22.17 ± 6.51	more significant inhibition (p<0.01)	more significant inhibition (p<0.01)	moderate inhibition (p<0.05)
Cc1sc2nc3c(c(N)c2c1C)CCCCC3 [BN-4, 2,3-dimethyl-6,7,8,9-tetrahydro-5H-cyclohepta[b]thieno[3,2-e]pyridin-4-amine]	12.17 ± 1.14	69.96 ± 4.06 %	13.57 ± 1.71	50.01 ± 1.09	32.71 ± 4.45	38.52 ± 2.60			> 2000	> 2000	92.07 ± 10.70 ng/gm of tissue	33.59 ± 5.53	22.83 ± 9.93 Pg/ml of tissue	29.28 ± 3.60	more significant inhibition (p<0.01)	more significant inhibition (p<0.01)	more significantly (p<0.01) reduced
Nc1c2c(nc3sc4c(c13)CCC4)CCCCC2 [BN-16, 1,2,3,6,7,8,9,10-Octahydrocyclohepta[b]cyclopenta[4,5]thieno[3,2-e]pyridine-11-amine]	18.30 ± 3.25	61.80 ± 1.18a %	30.90 ± 4.32	40.09 ± 4.24	41.00 ± 3.86	31.85 ± 2.09	0.25 ± 0.12	0/4	> 2000	> 2000	68.87 ± 21.1 ng/gm of tissue	40.51 ± 9.56	17.0 ± 4.50 Pg/ml of tissue	32.48 ± 6.22	moderate inhibition (p<0.05)	moderate inhibition (p<0.05)	more significantly (p<0.01) reduced
COc1ccc2c(c1)c(CC(=O)O)c(C)n2C(=O)c1ccc(Cl)cc1 [Indomethacin, reference compound]							2.25 ± 0.41	4/4			81.02 ± 17.98 ng/gm of tissue	40.42 ± 8.73	46.0 ± 7.91 Pg/ml of tissue	20.04 ± 5.33	moderate inhibition (p<0.05)	moderate inhibition (p<0.05)	moderate inhibition (p<0.05)
